Measurements: patent US20190216761A1, “COMPOSITIONS COMPRISING 15-HEPE AND METHODS OF USING THE SAME” (Afimmune Limited, priority 2015, published 2019)
Marks after values point to notes of the source that are not given here.

Tests used:
[1] = system: rPPARδ; test: PPAR agonist reporter assay (Gal4 hybrid receptor, luciferase); type: cell-based, rat
Description: (§1) This study utilized proprietary reporter cells expressing a hybrid receptor comprising the N-terminal Gal4 DNA binding domain fused to the ligand binding domain of the specific human nuclear receptor (hPPARα, hPPARδ, and hPPARγ) and rat nuclear receptor (rPPARα, rPPARδ, and rPPARγ). The reporter vectors used in this Example comprise the firefly luciferase gene functionally linked to the Gal4 upstream activation sequence.
Nuclear Receptor assay was performed by dispensing 100 μL of a suspension of Reporter Cells in Cell Recovery Medium (CRM) containing 10% charcoal stripped FBS into each well of a white 96-well plate. Test compounds were diluted using compound screening medium (CSM) containing 10% charcoal stripped FBS to generate “2×-concentration” treatment media. Immediately after this dilution step, 100 μL of each diluted 2×-concentration treatment medium was dispensed (in triplicate) into the Reporter Cell-containing assay wells.
After incubation at 37° C. for 24 hours, the treatment media was discarded. 100 μL of Luciferase Detection Reagent substrate was added to each well and RLUs were quantified from each well to determine nuclear receptor activities.

[2] = biological target: T1, rPPARγ (Rattus norvegicus, UniProt O88275); test: PPAR antagonist reporter assay (reference agonist at EC80); type: cell-based; conditions: for inhibition of rat PPARs (in words), rPPARγ: at higher test concentrations
T1 construct: expressed in transfected cells
T1 sequence (O88275 238-503 limits assumed): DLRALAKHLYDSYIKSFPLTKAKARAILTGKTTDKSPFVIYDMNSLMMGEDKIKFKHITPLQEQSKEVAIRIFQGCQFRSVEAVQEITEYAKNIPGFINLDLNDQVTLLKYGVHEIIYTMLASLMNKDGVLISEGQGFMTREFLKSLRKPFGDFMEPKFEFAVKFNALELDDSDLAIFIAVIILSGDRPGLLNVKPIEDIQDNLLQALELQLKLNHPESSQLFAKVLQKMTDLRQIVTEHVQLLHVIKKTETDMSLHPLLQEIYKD
Description: as §1
(§2) Nuclear Receptor assay was performed by suspending Reporter Cells in CRM containing 10% charcoal stripped FBS. 2×-EC80 concentrations of the appropriate reference agonist were then added to the Reporter Cell suspension, and 100 μL of the mixture dispensed into wells of a white 96-well plate. Test compounds were diluted using compound screening medium (CSM) containing 10% charcoal stripped FBS to generate “2×-concentration” treatment media. Immediately after this dilution step, 100 μL of each diluted 2×-concentration treatment medium was dispensed (in triplicate) into the Reporter Cell-containing assay wells.
(§3) After incubation at 37° C. for 24 hours, the treatment media was discarded. Each well was rinsed once with LCM Buffer; LCM substrate was then added. After incubation for 30 minutes at 37° C., fluorescence was measured to determine the relative number of live cells per assay well. LCM substrate was then discarded and 100 μL of Luciferase Detection Reagent substrate was added to each well. RLUs were quantified from each well to determine nuclear receptor activities.

[3] = system: rPPARδ; test: as above; type: cell-based, rat; conditions: for inhibition of rat PPARs (in words), rPPARδ: at higher test concentrations
Description: as §1, §2, §3

Row | SMILES | Fold-Activation (vs. 0.10% DMSO) rPPAR-δ ([1]; 137 nM) | Fold-Activation (vs. 0.10% DMSO) rPPAR-δ ([1]; 412 nM) | Fold-Activation (vs. 0.10% DMSO) rPPAR-δ ([1]; 1,235 nM) | Fold-Activation (vs. 0.10% DMSO) rPPAR-δ ([1]; 3,704 nM) | Fold-Activation (vs. 0.10% DMSO) rPPAR-δ ([1]; 11,111 nM) | Fold-Activation (vs. 0.10% DMSO) rPPAR-δ ([1]; 33,333 nM) | Fold-Activation (vs. 0.10% DMSO) rPPAR-δ ([1]; 100,000 nM) | Fold-Activation (vs. 0.10% DMSO) rPPAR-δ ([1]; 300,000 nM) | % Inhibition of agonist-stimulated receptor activity vs. 0.10% DMSO, rPPAR-γ ([2]; 137 nM) | % Inhibition of agonist-stimulated receptor activity vs. 0.10% DMSO, rPPAR-γ ([2]; 412 nM) | % Inhibition of agonist-stimulated receptor activity vs. 0.10% DMSO, rPPAR-γ ([2]; 1,235 nM) | % Inhibition of agonist-stimulated receptor activity vs. 0.10% DMSO, rPPAR-γ ([2]; 3,704 nM) | % Inhibition of agonist-stimulated receptor activity vs. 0.10% DMSO, rPPAR-γ ([2]; 11,111 nM) | % Inhibition of agonist-stimulated receptor activity vs. 0.10% DMSO, rPPAR-γ ([2]; 33,333 nM) | % Inhibition of agonist-stimulated receptor activity vs. 0.10% DMSO, rPPAR-γ ([2]; 100,000 nM) | % Inhibition of agonist-stimulated receptor activity vs. 0.10% DMSO, rPPAR-γ ([2]; 300,000 nM) | inhibition of rat PPARs (in words), rPPARγ [2] | % Inhibition of agonist-stimulated receptor activity vs. 0.10% DMSO, rPPAR-δ ([3]; 137 nM) | % Inhibition of agonist-stimulated receptor activity vs. 0.10% DMSO, rPPAR-δ ([3]; 412 nM) | % Inhibition of agonist-stimulated receptor activity vs. 0.10% DMSO, rPPAR-δ ([3]; 1,235 nM) | further results
1 | CC/C=C\C[C@H](O)/C=C/C=C\C/C=C\C/C=C\CCCC(=O)OCC [15-HEPE-EE, 15-HEPE ethyl ester] | 1.3 fold | 1.5 fold | 1.6 fold | 1.8 fold | 2.4* fold | 2.7* fold | 7.2* fold | 1.9 fold | 10% | −13% | −7.6% | −6.7% | −4.1% | 8.4% | 26% | 93% | apparent inhibition | 25% | 1.5% | −1.8% | agonism activity against rat PPARδ (in words) ([1]; at medium to higher doses in the dose response curve): mild to moderate agonism activity; % Inhibition of agonist-stimulated receptor activity vs. 0.10% DMSO, rPPAR-δ ([3]; 3,704 nM): 6.8%; % Inhibition of agonist-stimulated receptor activity vs. 0.10% DMSO, rPPAR-δ ([3]; 11,111 nM): 1.2%; % Inhibition of agonist-stimulated receptor activity vs. 0.10% DMSO, rPPAR-δ ([3]; 33,333 nM): 26%; % Inhibition of agonist-stimulated receptor activity vs. 0.10% DMSO, rPPAR-δ ([3]; 100,000 nM): 58%; % Inhibition of agonist-stimulated receptor activity vs. 0.10% DMSO, rPPAR-δ ([3]; 300,000 nM): 100%; inhibition of rat PPARs (in words), rPPARδ [3]: apparent inhibition
2 | CC/C=C\C/C=C\C/C=C\C/C=C\C/C=C\CCCC(=O)OCC [EPA-EE, EPA ethyl ester, reference compound] | 1.3 fold | 1.3 fold | 1.2 fold | 1.5 fold | 1.4 fold | 1.5 fold | 2.0 fold | 3.6* fold | 9.6% | −7.4% | −7.3% | −0.55% | 2.8% | 5.0% | 6.2% | 7.0% | does not exhibit similar inhibitory activity | 26% | 4.0% | 5.7% | % Inhibition of agonist-stimulated receptor activity vs. 0.10% DMSO, rPPAR-δ ([3]; 3,704 nM): 8.1%; % Inhibition of agonist-stimulated receptor activity vs. 0.10% DMSO, rPPAR-δ ([3]; 11,111 nM): 3.7%; % Inhibition of agonist-stimulated receptor activity vs. 0.10% DMSO, rPPAR-δ ([3]; 33,333 nM): 7.2%; % Inhibition of agonist-stimulated receptor activity vs. 0.10% DMSO, rPPAR-δ ([3]; 100,000 nM): 10%; % Inhibition of agonist-stimulated receptor activity vs. 0.10% DMSO, rPPAR-δ ([3]; 300,000 nM): 36%; inhibition of rat PPARs (in words), rPPARδ [3]: does not exhibit similar inhibitory activity
